Assays:
[1] = target: T1, Testis-specific serine/threonine-protein kinase 1 (Homo sapiens) (UniProt Q9BXA7); experiment: Inhibition of human TSSK1 assessed as residual activity at 1 uM using RBER-CHKtide as substrate in presence of 33P-ATP by ProQinase assay relative to control
T1 sequence (whole entry): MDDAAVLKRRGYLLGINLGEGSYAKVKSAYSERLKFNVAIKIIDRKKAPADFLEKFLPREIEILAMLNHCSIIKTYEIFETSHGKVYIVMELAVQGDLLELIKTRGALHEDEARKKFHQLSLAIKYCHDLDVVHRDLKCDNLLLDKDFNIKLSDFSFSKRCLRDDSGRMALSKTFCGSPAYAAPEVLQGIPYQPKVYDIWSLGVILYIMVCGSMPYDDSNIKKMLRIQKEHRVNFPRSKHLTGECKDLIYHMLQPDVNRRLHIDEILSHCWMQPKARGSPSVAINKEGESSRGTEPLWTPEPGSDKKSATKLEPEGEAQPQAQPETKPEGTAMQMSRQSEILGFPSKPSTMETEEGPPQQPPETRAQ

[2] = target: NT-3 growth factor receptor (Homo sapiens) (UniProt Q16288); experiment: Inhibition of human TRKC assessed as residual activity at 1 uM using polyEy as substrate in presence of 33P-ATP by ProQinase assay relative to control
[3] = system: Platelet-derived growth factor receptor alpha (Homo sapiens), P16234 [V561D]; experiment: Inhibition of human PDGFRalpha V561D mutant assessed as residual activity at 1 uM using PolyEY as substrate in presence of 33P-ATP by ProQinase assay relative to control
Chain of Platelet-derived growth factor receptor alpha (Homo sapiens), P16234 [V561D] (P16234 whole entry V561D): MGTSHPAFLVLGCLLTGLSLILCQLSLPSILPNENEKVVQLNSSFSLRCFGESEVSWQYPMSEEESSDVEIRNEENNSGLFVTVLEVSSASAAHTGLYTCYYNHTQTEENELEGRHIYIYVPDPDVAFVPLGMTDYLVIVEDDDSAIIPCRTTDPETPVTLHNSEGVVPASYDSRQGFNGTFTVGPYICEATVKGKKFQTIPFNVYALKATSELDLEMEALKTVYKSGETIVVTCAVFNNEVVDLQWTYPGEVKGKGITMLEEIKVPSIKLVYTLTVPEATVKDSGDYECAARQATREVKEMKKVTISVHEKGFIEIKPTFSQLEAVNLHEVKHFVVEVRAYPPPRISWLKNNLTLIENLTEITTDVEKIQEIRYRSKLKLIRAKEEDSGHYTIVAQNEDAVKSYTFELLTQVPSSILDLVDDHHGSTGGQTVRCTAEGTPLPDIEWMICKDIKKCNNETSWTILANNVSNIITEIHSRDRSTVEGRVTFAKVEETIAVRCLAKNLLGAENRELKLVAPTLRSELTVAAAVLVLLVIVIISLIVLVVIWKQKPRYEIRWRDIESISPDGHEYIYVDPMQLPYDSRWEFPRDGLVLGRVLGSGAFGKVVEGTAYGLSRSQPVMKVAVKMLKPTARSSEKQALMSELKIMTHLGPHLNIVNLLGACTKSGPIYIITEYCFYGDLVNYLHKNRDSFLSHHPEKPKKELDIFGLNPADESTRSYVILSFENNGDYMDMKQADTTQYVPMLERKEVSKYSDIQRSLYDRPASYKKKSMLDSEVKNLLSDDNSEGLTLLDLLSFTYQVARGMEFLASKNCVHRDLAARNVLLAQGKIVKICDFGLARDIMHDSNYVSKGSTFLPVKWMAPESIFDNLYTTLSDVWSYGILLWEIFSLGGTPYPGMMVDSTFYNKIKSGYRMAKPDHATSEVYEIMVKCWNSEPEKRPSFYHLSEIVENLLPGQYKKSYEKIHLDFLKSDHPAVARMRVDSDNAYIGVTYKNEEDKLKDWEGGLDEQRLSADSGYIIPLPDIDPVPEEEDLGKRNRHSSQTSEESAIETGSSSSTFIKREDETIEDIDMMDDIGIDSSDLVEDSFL

[4] = system: Mus musculus; experiment: In vivo anti-inflammatory activity in Gal/LPS induced mouse assessed as inhibition in TNF-alpha release at 3 mg/kg, po administered for 1 hrs relative to control; format: functional
[5] = target: Mitogen-activated protein kinase kinase kinase 3 (Homo sapiens) (UniProt Q99759); experiment: Inhibition of MAP3K3 (unknown origin) assessed as remaining activity at 1 uM by Kinome scan method relative to control
Chain of Mitogen-activated protein kinase kinase kinase 3 (Homo sapiens) (Q99759 whole entry): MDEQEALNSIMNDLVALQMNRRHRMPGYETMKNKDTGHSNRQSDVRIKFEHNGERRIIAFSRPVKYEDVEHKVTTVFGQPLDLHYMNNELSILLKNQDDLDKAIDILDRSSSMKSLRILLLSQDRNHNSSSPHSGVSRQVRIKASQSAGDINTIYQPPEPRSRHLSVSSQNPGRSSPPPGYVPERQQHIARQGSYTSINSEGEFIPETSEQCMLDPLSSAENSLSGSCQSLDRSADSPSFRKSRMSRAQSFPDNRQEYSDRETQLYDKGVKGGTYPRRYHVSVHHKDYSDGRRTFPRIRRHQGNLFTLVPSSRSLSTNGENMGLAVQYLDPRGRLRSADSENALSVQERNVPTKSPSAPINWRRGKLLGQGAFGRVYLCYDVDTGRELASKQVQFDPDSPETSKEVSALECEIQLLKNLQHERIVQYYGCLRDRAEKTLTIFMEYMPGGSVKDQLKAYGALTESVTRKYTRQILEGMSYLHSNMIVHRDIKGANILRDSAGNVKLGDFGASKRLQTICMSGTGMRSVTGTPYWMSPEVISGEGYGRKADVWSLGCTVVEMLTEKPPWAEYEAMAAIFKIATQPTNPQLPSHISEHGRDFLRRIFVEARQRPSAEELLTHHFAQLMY

[6] = target: Calcium/calmodulin-dependent protein kinase kinase 1 (Homo sapiens) (UniProt Q8N5S9); experiment: Inhibition of human CAMKK1 assessed as residual activity at 1 uM using RB-CTF as substrate in presence of 33P-ATP by ProQinase assay relative to control
Chain of Calcium/calmodulin-dependent protein kinase kinase 1 (Homo sapiens) (Q8N5S9 whole entry, looked up): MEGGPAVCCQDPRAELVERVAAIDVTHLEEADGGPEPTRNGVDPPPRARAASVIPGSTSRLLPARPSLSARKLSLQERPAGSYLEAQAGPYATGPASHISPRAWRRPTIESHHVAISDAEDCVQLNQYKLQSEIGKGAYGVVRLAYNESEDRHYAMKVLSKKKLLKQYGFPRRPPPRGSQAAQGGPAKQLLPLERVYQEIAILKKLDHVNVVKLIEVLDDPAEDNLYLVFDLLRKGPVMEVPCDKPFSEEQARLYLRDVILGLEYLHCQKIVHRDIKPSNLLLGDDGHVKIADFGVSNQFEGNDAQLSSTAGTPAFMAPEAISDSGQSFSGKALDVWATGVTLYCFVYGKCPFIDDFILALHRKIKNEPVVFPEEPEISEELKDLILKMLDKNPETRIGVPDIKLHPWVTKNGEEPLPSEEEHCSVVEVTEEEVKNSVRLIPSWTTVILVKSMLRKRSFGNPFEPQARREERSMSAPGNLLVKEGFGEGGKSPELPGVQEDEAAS

[7] = organism: Homo sapiens; experiment: Inhibition of human CDK1/CycA2 assessed as residual activity at 1 uM using RBER-CHKtide as substrate in presence of 33P-ATP by ProQinase assay relative to control
[8] = target: Tyrosine-protein kinase JAK2 (Homo sapiens) (UniProt O60674); experiment: Inhibition of human JAK2 assessed as residual activity at 1 uM using poly(Ala,Glu,Lys,Tyr)6:2:5:1 as substrate in presence of 33P-ATP by ProQinase assay relative to control
Chain of Tyrosine-protein kinase JAK2 (Homo sapiens) (O60674 whole entry): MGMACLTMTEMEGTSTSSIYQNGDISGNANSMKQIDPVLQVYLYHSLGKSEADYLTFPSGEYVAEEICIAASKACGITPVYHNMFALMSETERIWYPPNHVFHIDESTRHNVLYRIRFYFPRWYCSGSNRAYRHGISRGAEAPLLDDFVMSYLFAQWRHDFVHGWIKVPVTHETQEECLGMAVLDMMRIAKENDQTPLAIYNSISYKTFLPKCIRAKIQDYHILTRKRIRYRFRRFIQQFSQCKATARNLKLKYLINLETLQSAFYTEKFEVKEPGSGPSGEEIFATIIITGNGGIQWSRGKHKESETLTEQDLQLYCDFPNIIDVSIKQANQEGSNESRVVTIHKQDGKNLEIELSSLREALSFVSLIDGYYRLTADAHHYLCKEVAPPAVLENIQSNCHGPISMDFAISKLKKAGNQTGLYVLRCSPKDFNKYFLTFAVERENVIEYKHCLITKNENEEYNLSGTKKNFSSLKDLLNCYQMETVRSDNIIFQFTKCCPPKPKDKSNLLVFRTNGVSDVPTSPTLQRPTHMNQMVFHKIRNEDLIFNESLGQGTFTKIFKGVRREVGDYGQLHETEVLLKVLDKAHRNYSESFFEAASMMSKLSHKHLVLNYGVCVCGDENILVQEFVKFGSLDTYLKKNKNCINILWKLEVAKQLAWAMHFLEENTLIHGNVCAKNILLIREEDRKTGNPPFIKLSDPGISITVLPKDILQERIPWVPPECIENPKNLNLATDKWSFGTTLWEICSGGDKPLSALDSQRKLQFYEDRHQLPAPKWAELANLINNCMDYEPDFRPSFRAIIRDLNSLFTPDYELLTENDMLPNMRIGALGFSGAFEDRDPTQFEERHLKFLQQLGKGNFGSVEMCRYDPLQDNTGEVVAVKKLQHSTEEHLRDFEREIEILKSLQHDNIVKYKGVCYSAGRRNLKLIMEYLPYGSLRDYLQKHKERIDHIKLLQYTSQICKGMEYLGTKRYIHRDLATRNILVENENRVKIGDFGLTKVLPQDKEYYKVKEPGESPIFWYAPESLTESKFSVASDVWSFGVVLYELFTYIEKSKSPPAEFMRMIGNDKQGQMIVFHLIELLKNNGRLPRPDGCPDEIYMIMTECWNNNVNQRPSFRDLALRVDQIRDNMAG

[9] = target: Interferon-induced, double-stranded RNA-activated protein kinase (Homo sapiens) (UniProt P19525); experiment: Inhibition of human EIF2AK2 assessed as residual activity at 1 uM using RB-CTF as substrate in presence of 33P-ATP by ProQinase assay relative to control
[10] = target: T2, Serine/threonine-protein kinase DCLK2 (Homo sapiens) (UniProt Q8N568); experiment: Inhibition of human DCAMKL2 assessed as residual activity at 1 uM using RBER-CHKtide as substrate in presence of 33P-ATP by ProQinase assay relative to control
T2 sequence (whole entry): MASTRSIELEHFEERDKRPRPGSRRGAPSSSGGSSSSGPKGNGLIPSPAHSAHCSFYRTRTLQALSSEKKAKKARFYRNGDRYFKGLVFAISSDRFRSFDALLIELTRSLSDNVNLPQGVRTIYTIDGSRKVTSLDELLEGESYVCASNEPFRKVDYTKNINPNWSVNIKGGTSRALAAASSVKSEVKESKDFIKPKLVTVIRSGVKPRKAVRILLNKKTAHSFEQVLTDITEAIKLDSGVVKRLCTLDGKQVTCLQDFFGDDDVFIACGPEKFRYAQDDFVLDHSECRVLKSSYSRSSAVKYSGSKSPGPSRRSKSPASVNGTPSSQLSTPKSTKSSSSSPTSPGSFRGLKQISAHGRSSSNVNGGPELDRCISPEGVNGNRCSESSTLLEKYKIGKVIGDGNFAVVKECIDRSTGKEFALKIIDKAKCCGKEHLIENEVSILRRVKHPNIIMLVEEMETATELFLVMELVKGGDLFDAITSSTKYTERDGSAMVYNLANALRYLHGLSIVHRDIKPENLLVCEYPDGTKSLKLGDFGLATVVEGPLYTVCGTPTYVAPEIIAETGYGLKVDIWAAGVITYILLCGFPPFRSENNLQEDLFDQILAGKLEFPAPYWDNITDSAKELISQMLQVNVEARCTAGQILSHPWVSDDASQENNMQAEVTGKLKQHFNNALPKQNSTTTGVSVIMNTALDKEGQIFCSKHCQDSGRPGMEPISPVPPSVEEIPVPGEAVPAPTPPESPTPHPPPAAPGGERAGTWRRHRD

[11] = target: Fibroblast growth factor receptor 3 (Homo sapiens) (UniProt P22607); experiment: Inhibition of human FGFR3 assessed as residual activity at 1 uM using PolyEY as substrate in presence of 33P-ATP by ProQinase assay relative to control
[12] = target: MAP kinase-interacting serine/threonine-protein kinase 1 (Homo sapiens) (UniProt Q9BUB5); experiment: Inhibition of MKNK1 (unknown origin) assessed as remaining activity at 1 uM by Kinome scan method relative to control
[13] = target: ALK tyrosine kinase receptor (Homo sapiens) (UniProt Q9UM73); experiment: Inhibition of ALK (unknown origin) assessed as remaining activity at 1 uM by Kinome scan method relative to control
Chain of ALK tyrosine kinase receptor (Homo sapiens) (Q9UM73 19-1620 limits assumed): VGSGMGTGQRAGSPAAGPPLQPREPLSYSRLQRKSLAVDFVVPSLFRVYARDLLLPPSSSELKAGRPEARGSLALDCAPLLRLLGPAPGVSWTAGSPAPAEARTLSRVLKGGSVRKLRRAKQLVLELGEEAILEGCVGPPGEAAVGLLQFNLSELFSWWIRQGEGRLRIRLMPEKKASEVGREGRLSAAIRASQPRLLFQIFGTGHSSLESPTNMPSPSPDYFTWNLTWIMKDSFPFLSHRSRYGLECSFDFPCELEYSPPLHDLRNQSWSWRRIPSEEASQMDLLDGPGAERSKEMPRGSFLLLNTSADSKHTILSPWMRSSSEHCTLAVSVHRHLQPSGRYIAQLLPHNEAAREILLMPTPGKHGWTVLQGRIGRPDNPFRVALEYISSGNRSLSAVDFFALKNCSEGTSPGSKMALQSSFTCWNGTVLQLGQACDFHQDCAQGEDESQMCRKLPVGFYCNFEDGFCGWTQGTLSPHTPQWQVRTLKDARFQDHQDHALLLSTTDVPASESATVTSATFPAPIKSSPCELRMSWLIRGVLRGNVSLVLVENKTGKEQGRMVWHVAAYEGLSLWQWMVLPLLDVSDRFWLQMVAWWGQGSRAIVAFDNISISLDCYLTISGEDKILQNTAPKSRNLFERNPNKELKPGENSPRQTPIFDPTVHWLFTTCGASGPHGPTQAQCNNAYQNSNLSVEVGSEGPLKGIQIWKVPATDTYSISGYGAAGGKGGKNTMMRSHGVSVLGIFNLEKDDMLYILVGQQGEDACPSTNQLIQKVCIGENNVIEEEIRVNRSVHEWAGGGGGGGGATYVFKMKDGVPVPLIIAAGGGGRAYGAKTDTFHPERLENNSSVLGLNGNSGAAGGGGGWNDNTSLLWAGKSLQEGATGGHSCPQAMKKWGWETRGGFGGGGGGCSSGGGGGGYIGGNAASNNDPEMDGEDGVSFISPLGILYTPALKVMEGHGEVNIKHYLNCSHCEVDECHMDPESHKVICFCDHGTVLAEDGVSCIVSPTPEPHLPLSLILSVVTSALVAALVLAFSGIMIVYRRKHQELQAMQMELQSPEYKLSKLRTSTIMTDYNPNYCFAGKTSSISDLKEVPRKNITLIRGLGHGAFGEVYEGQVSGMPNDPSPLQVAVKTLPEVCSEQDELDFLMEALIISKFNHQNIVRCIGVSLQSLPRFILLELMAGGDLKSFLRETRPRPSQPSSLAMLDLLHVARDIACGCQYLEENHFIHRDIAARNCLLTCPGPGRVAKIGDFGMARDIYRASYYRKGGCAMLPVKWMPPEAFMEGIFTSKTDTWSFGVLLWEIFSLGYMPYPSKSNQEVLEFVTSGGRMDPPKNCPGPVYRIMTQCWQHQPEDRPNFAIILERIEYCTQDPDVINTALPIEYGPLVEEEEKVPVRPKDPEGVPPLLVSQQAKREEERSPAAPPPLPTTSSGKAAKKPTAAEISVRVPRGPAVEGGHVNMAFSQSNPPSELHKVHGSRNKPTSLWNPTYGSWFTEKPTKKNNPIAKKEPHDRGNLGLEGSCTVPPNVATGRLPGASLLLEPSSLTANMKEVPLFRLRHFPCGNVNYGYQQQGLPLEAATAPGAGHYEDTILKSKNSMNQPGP

## O=C1c2ccc(Nc3ccc(F)cc3F)cc2CCc2ccc(OC[C@H](O)CO)cc21 [Skepinone-L]
[1]
  Activity: 90%
[2]
  Activity: 120%
[3]
  Activity: 91%
[4]
  inhibition in vivo at 3 mg/kg: 77%
[5]
  Activity: 100%
[6]
  Activity: 83%
[7]
  Activity: 98%
[8]
  Activity: 90%
[9]
  Activity: 86%
[10]
  Activity: 83%
[11]
  Activity: 102%
[12]
  Activity: 99%
[13]
  Activity: 100%
